Source: ChEMBL document CHEMBL4619709, “Synthesis and in-vitro anti-cancer evaluations of multi-methoxylated asymmetrical diarylpentanoids as intrinsic apoptosis inducer against colorectal cancer” (Bioorg Med Chem Lett, 2020)
Activity calls are given as the source filed them. No cut-off for these calls is given here.

How the values were obtained:
NCI-H508 [1] = assay: Antiproliferative activity against human NCI-H508 cells at 10 uM after 72 hrs by MTT assay; format: functional, cell-based
RKO [2] = assay: Antiproliferative activity against human RKO cells at 10 uM after 72 hrs by MTT assay; format: functional, cell-based
SW-620 [3] = assay: Antiproliferative activity against human SW620 cells at 10 uM after 72 hrs by MTT assay; format: functional, cell-based
HT-29 [4] = assay: Antiproliferative activity against human HT-29 cells at 10 uM after 72 hrs by MTT assay; format: functional, cell-based
LoVo [5] = assay: Antiproliferative activity against human LoVo cells at 10 uM after 72 hrs by MTT assay; format: functional, cell-based
T84 [6] = assay: Antiproliferative activity against human T84 cells at 10 uM after 72 hrs by MTT assay; format: functional, cell-based
[7] = Therapeutic index, ratio of IC50 for human NHDF cells to IC50 for human NCI-H508 cells after 72 hrs; format: toxicity; conditions: NHDF cells versus NCI-H508 cells, read-out: Ratio IC50
[8] = Therapeutic index, ratio of IC50 for human NHDF cells to IC50 for human RKO cells after 72 hrs; format: toxicity; conditions: NHDF cells versus RKO cells, read-out: Ratio IC50
[9] = Therapeutic index, ratio of IC50 for human NHDF cells to IC50 for human SW620 cells after 72 hrs; format: toxicity; conditions: NHDF cells versus SW620 cells, read-out: Ratio IC50
[10] = Therapeutic index, ratio of IC50 for human NHDF cells to IC50 for human HT-29 cells after 72 hrs; format: toxicity; conditions: NHDF cells versus HT-29 cells, read-out: Ratio IC50
[11] = Therapeutic index, ratio of IC50 for human NHDF cells to IC50 for human LoVo cells after 72 hrs; format: toxicity; conditions: NHDF cells versus LoVo cells, read-out: Ratio IC50
[12] = Therapeutic index, ratio of IC50 for human NHDF cells to IC50 for human T84 cells after 72 hrs; format: toxicity; conditions: NHDF cells versus T84 cells, read-out: Ratio IC50
NHDF = assay: Cytotoxicity against human NHDF cells assessed as reduction in cell viability; format: cell-based
NCI-H508 [13] = assay: Antiproliferative activity against human NCI-H508 cells assessed as reduction in cell viability after 72 hrs by MTT assay; format: functional, cell-based; conditions: NCI-H508, 72 h
RKO [14] = assay: Antiproliferative activity against human RKO cells assessed as reduction in cell viability after 72 hrs by MTT assay; format: functional, cell-based
HT-29 [15] = assay: Antiproliferative activity against human HT-29 cells assessed as reduction in cell viability after 72 hrs by MTT assay; format: functional, cell-based; conditions: HT-29, 72 h
SW-620 [16] = assay: Antiproliferative activity against human SW620 cells assessed as reduction in cell viability after 72 hrs by MTT assay; format: functional, cell-based; conditions: SW-620, 72 h
LoVo [17] = assay: Antiproliferative activity against human LoVo cells assessed as reduction in cell viability after 72 hrs by MTT assay; format: functional, cell-based
T84 [18] = assay: Antiproliferative activity against human T84 cells assessed as reduction in cell viability after 72 hrs by MTT assay; format: functional, cell-based; conditions: T84, 72 h

| SMILES | Activity (NCI-H508 [1]) | Activity (RKO [2]) | Activity (SW-620 [3]) | Activity (HT-29 [4]) | Activity (LoVo [5]) | Activity (T84 [6]) | selectivity ratio at 72 h [7] | selectivity ratio at 72 h [8] | selectivity ratio at 72 h [9] | selectivity ratio at 72 h [10] | selectivity ratio at 72 h [11] | selectivity ratio at 72 h [12] | IC50 (NHDF) | IC50 (NCI-H508 [13]) | IC50 (RKO [14]) | IC50 (HT-29 [15]) | IC50 (SW-620 [16]) | IC50 (LoVo [17]) | IC50 (T84 [18]) |
| --- | --- | --- | --- | --- | --- | --- | --- | --- | --- | --- | --- | --- | --- | --- | --- | --- | --- | --- | --- |
| COc1cccc(/C=C2\CCC/C(=C\c3cc(OC)c(OC)c(OC)c3)C2=O)c1OC | Active | Active | Active | Active | Active | Active | 3.9 to 7.2 | 3.9 to 7.2 | 3.9 to 7.2 | 3.9 to 7.2 | 3.9 to 7.2 | 3.9 to 7.2 | 18.8 µM | 4.8 µM | 3.6 µM | 3.2 µM | 4.5 µM | 2.6 µM | 3.9 µM |
| COc1cc(/C=C2\CCC/C(=C\c3ccc(F)c(F)c3)C2=O)cc(OC)c1OC | Active | Active | Active | Active | Active | Active | 2.7 to 6.5 | 2.7 to 6.5 | 2.7 to 6.5 | 2.7 to 6.5 | 2.7 to 6.5 | 2.7 to 6.5 | 11.1 µM | 4 µM | 2.2 µM | 1.7 µM | 4.1 µM | 2.3 µM | 3.5 µM |
| COc1ccc(/C=C2\CCC/C(=C\c3cc(OC)c(OC)c(OC)c3)C2=O)cc1OC | Active | Active | Active | Active | Active | Active | 3.1 to 4.5 | 3.1 to 4.5 | 3.1 to 4.5 | 3.1 to 4.5 | 3.1 to 4.5 | 3.1 to 4.5 | – | 1.7 µM | 1.3 µM | 1.5 µM | 1.6 µM | 1.7 µM | 1.9 µM |
| COc1cc(/C=C2\CCC/C(=C\c3ccc(O)c(O)c3)C2=O)cc(OC)c1OC | Active | Active | Active | Active | Active | Active | 1.1 to 3.3 | 1.1 to 3.3 | 1.1 to 3.3 | 1.1 to 3.3 | 1.1 to 3.3 | 1.1 to 3.3 | 9 µM | 7 µM | 3.1 µM | 8.5 µM | 3.2 µM | 2.7 µM | 3.6 µM |
| COc1cc(/C=C2\CCC/C(=C\c3ccccc3F)C2=O)cc(OC)c1OC | Active | Active | Active | Active | Active | Active | 1.8 to 2.7 | 1.8 to 2.7 | 1.8 to 2.7 | 1.8 to 2.7 | 1.8 to 2.7 | 1.8 to 2.7 | 4 µM | 2 µM | 1.5 µM | 1.6 µM | 2.1 µM | 1.9 µM | 2.2 µM |
| COc1cc(/C=C2\CCC/C(=C\c3ccccc3Br)C2=O)cc(OC)c1OC | Active | Active | Active | Active | Active | Active | 3 to 5 | 3 to 5 | 3 to 5 | 3 to 5 | 3 to 5 | 3 to 5 | 12.4 µM | 2.7 µM | 2.5 µM | 2.8 µM | 3.3 µM | 2.8 µM | 4.2 µM |
| COc1cc(/C=C2\CCC/C(=C\c3cccc(O)c3)C2=O)cc(OC)c1OC | Active | Active | Active | Active | Active | Active | 3.3 to 5.3 | 3.3 to 5.3 | 3.3 to 5.3 | 3.3 to 5.3 | 3.3 to 5.3 | 3.3 to 5.3 | 25.3 µM | 5.6 µM | 6.5 µM | 7.6 µM | > 10 µM | 4.8 µM | 6.5 µM |
| O=c1[nH]cc(F)c(=O)[nH]1 [FLUOROURACIL] | – | – | – | – | – | – | – | – | – | – | – | – | > 50 µM | 8.8 µM | 2.9 µM | > 10 µM | > 10 µM | 2.7 µM | > 10 µM |
| COc1ccccc1/C=C1\CCC/C(=C\c2cc(OC)c(OC)c(OC)c2)C1=O | Active | Active | Active | Active | Active | Active | 3.6 to 7.2 | 3.6 to 7.2 | 3.6 to 7.2 | 3.6 to 7.2 | 3.6 to 7.2 | 3.6 to 7.2 | 7.9 µM | 2.2 µM | 1.2 µM | 1.2 µM | 2 µM | 1.1 µM | 2.1 µM |
